Experiment [1] has as its target Mycobacterium tuberculosis glutamine synthetase (MtGS) (Mycobacterium tuberculosis, UniProt P9WN39). Kind of experiment: MtGS inhibition screening and IC50 determination. Format: biochemical. Particulars: for inhibitory activity in the MtGS enzymatic assay (in words): inhibition screening at 25 μM; for fold increase of affinity/potency (IC50) compared to 7a: MtGS IC50 ratio vs 7a.

The next experiment relates to MtGS. Particulars: read-out: IC50 obtained in the HTS study; HTS assay conditions; cited from earlier work.

Chain of Mycobacterium tuberculosis glutamine synthetase (MtGS) (P9WN39 whole entry): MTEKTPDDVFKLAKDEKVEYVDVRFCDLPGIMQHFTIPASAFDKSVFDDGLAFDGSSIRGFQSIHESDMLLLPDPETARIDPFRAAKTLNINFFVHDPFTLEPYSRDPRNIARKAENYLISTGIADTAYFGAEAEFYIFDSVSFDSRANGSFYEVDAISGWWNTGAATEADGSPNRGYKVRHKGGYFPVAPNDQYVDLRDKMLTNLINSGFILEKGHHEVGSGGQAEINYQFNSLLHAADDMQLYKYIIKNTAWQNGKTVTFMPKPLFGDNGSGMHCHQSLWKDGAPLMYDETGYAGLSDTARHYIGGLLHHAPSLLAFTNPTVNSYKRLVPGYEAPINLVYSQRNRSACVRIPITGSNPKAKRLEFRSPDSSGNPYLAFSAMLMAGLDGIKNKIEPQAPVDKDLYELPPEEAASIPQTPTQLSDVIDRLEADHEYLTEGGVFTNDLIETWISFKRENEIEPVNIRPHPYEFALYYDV

`COc1ccc2cc(-c3nc(C(C)(C)C)[nH]c3-c3ccncc3)ccc2c1` [Compound 7a]: the “fold higher IC50 than the IC50 obtained in the HTS study” value in experiment [1] turned out to be 30 fold. In the experiment on MtGS, the concentration for half-maximal inhibition (IC50) was 100 nM. As for `COc1ccc2cc(-c3nc(C)[nH]c3-c3ccncc3)ccc2c1` [Compound 7f], the “inhibitory activity in the MtGS enzymatic assay (in words)” value (“inhibitory activity” for short) in experiment [1] was “inactive”.

As for `COc1ccc2cc(-c3nc[nH]c3-c3ccncc3)ccc2c1` [Compound 7g], in experiment [1], the “inhibitory activity” value was “inactive”. On the same count and under the same terms, under `COc1ccc2cc(-c3nc(COCc4ccccc4)[nH]c3-c3ccncc3)ccc2c1` [Compound 7h] stands “did not show any inhibitory activity”. The same measure, in the same setting: under `COc1ccc2cc(-c3nc(CO)[nH]c3-c3ccncc3)ccc2c1` [Compound 7i] stands “inactive”. Take `COc1ccc2cc(-c3nc(C(C)(C)C)[nH]c3-c3ccnc(F)c3)ccc2c1` [Compound 10]: in experiment [1], the “fold increase of affinity/potency (IC50) compared to 7a” value is reported as approximately 2.5 fold. Same read-out and setting: under `COc1ccc2cc(-c3nc(C(C)(C)C)[nH]c3-c3ccnc(N)c3)ccc2c1` [Compound 11a, 4-(2-tert-Butyl-4-(6-methoxynaphthalen-2-yl)-1H-imidazol-5-yl)pyridin-2-amine] stands “over 60 fold”. Turning to `CNc1cc(-c2[nH]c(C(C)(C)C)nc2-c2ccc3cc(OC)ccc3c2)ccn1` [Compound 11b], the “fold loss in activity compared to 11a” value in experiment [1] is 100 fold.

Regarding `COc1ccc2cc(-c3nc(C(C)(C)C)[nH]c3-c3ccnc(N(C)C)c3)ccc2c1` [Compound 11c], the “inhibitory activity” value in experiment [1] is “inactive”.

Values taken from PMC3381009 (Journal of Medicinal Chemistry, 2012).
